Results reported in the supplement of paper PMC10733146.

Tests used:
Test in all cases: viability relative to DMSO control (fraction); higher = less drug effect (more viable cells)
Details in all cases: 48 h
AG-221 (Enasidinib) = compound: CC(C)(O)CNc1nc(Nc2ccnc(C(F)(F)F)c2)nc(-c2cccc(C(F)(F)F)n2)n1 [AG-221 (Enasidinib)]
Procedure, shortened: (§1)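 Using 384-well plates with compounds already plated at five concentrations, one well per concentration, 4 × 10^4 primary mononuclear tumour cells were added per well. Cells were Ficoll-isolated from blood or bone marrow or came from processed lymph node, fresh or cryopreserved. They were kept for 48 h at 37 °C and 5% CO2 in RPMI-1640 supplemented with penicillin/streptomycin, L-glutamine and human serum, and viability was read as CellTiter-Glo luminescence relative to the median of 16 inner DMSO wells.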

Bortezomib = compound: CC(C)C[C@H](NC(=O)[C@H](Cc1ccccc1)NC(=O)c1cnccn1)B(O)O [Bortezomib]
Procedure, shortened: as §1

EPZ-5676 = compound: CC(C)N(C[C@H]1O[C@@H](n2cnc3c(N)ncnc32)[C@H](O)[C@@H]1O)[C@H]1C[C@@H](CCc2nc3cc(C(C)(C)C)ccc3[nH]2)C1 [EPZ-5676]
Procedure, shortened: as §1

Vemurafenib = compound: CCCS(=O)(=O)Nc1ccc(F)c(C(=O)c2c[nH]c3ncc(-c4ccc(Cl)cc4)cc23)c1F [Vemurafenib]
Procedure, shortened: as §1

BI6727 = compound: CC[C@@H]1C(=O)N(C)c2cnc(Nc3ccc(C(=O)N[C@H]4CC[C@H](N5CCN(CC6CC6)CC5)CC4)cc3OC)nc2N1C(C)C [BI6727]
Procedure, shortened: as §1

Ribociclib = compound: CN(C)C(=O)c1cc2cnc(Nc3ccc(N4CCNCC4)cn3)nc2n1C1CCCC1 [Ribociclib]
Procedure, shortened: as §1

MLN-120B = compound: COc1c(Cl)cc2c([nH]c3cnccc32)c1NC(=O)c1cccnc1C [MLN-120B]
Procedure, shortened: as §1

Nelarabine = compound: COc1nc(N)nc2c1ncn2[C@@H]1O[C@H](CO)[C@@H](O)[C@@H]1O [Nelarabine]
Procedure, shortened: as §1

Panobinostat = compound: Cc1[nH]c2ccccc2c1CCNCc1ccc(/C=C/C(=O)NO)cc1 [Panobinostat]
Procedure, shortened: as §1

BEZ235 = compound: Cn1c(=O)n(-c2ccc(C(C)(C)C#N)cc2)c2c3cc(-c4cnc5ccccc5c4)ccc3ncc21 [BEZ235]
Procedure, shortened: as §1

Iniparib = compound: NC(=O)c1ccc(I)c([N+](=O)[O-])c1 [Iniparib]
Procedure, shortened: as §1

8-Azaguanin = compound: Nc1nc2n[nH]nc2c(=O)[nH]1 [8-Azaguanin]
Procedure, shortened: as §1

Vorinostat = compound: O=C(CCCCCCC(=O)Nc1ccccc1)NO [Vorinostat]
Procedure, shortened: as §1

Pentostatin = compound: OC[C@H]1O[C@@H](n2cnc3c2N=CNC[C@H]3O)C[C@@H]1O [Pentostatin]
Procedure, shortened: as §1

[1] = compound: OCc1ccc(-c2ccc(-c3ccc(CO)s3)o2)s1
Procedure, shortened: as §1

Test System primary B-PLL patient cells (S016) has a viability (AG-221 (Enasidinib); 0.024 µM) of 0.973, a viability (AG-221 (Enasidinib); 0.12 µM) of 0.917 and a viability (AG-221 (Enasidinib); 0.6 µM) of 1.19. For the same test system, the viability (AG-221 (Enasidinib); 3 µM) was 0.892, the viability (AG-221 (Enasidinib); 15 µM) was 0.928 and the viability (Bortezomib; 0.008 µM) was 0.99. It also gave a viability (Bortezomib; 0.04 µM) of 1.07, a viability (Bortezomib; 0.2 µM) of 1.01 and a viability (Bortezomib; 1 µM) of 1.19. It also gave a viability (Bortezomib; 5 µM) of 1.02, a viability (EPZ-5676; 0.0032 µM) of 0.991 and a viability (EPZ-5676; 0.016 µM) of 1.09. For the same test system, the viability (EPZ-5676; 0.08 µM) was 0.93, the viability (EPZ-5676; 0.4 µM) was 0.971 and the viability (EPZ-5676; 2 µM) was 1.05. For the same test system, the viability (Vemurafenib; 0.024 µM) was 0.934, the viability (Vemurafenib; 0.12 µM) was 0.948 and the viability (Vemurafenib; 0.6 µM) was 1.02. It also gave a viability (Vemurafenib; 3 µM) of 1.01, a viability (Vemurafenib; 15 µM) of 0.981 and a viability (BI6727; 0.024 µM) of 0.953. It also gave a viability (BI6727; 0.12 µM) of 0.973, a viability (BI6727; 0.6 µM) of 0.935 and a viability (BI6727; 3 µM) of 0.8. It also gave a viability (BI6727; 15 µM) of 0.364, a viability (Ribociclib; 0.024 µM) of 1.01 and a viability (Ribociclib; 0.12 µM) of 1.03. It also gave a viability (Ribociclib; 0.6 µM) of 1.09, a viability (Ribociclib; 3 µM) of 1.05 and a viability (Ribociclib; 15 µM) of 0.84. The viability (MLN-120B; 0.024 µM) was 0.915, the viability (MLN-120B; 0.12 µM) was 0.98 and the viability (MLN-120B; 0.6 µM) was 0.926. For the same test system, the viability (MLN-120B; 3 µM) was 0.887, the viability (MLN-120B; 15 µM) was 0.716 and the viability (Nelarabine; 0.024 µM) was 0.896. For the same test system, the viability (Nelarabine; 0.12 µM) was 1.03, the viability (Nelarabine; 0.6 µM) was 0.898 and the viability (Nelarabine; 3 µM) was 1.04. The viability (Nelarabine; 15 µM) was 0.674, the viability (Panobinostat; 0.00064 µM) was 0.824 and the viability (Panobinostat; 0.0032 µM) was 0.424. The viability (Panobinostat; 0.016 µM) was 0.0534, the viability (Panobinostat; 0.08 µM) was 0.0414 and the viability (Panobinostat; 0.4 µM) was 0.0709. It also gave a viability (BEZ235; 0.024 µM) of 0.837, a viability (BEZ235; 0.12 µM) of 0.867 and a viability (BEZ235; 0.6 µM) of 0.774. The viability (BEZ235; 3 µM) was 0.865, the viability (BEZ235; 15 µM) was 0.387 and the viability (Iniparib; 0.024 µM) was 1.1. The viability (Iniparib; 0.12 µM) was 1.01, the viability (Iniparib; 0.6 µM) was 0.996 and the viability (Iniparib; 3 µM) was 0.921. For the same test system, the viability (Iniparib; 15 µM) was 0.882, the viability (8-Azaguanin; 0.032 µM) was 0.998 and the viability (8-Azaguanin; 0.16 µM) was 1.02. The viability (8-Azaguanin; 0.8 µM) was 0.731, the viability (8-Azaguanin; 4 µM) was 0.35 and the viability (8-Azaguanin; 20 µM) was 0.118. For the same test system, the viability (Vorinostat; 0.016 µM) was 0.995, the viability (Vorinostat; 0.08 µM) was 0.87 and the viability (Vorinostat; 0.4 µM) was 0.578. The viability (Vorinostat; 2 µM) was 0.169, the viability (Vorinostat; 10 µM) was 0.0399 and the viability (Pentostatin; 0.03 µM) was 0.743. It also gave a viability (Pentostatin; 0.15 µM) of 0.765, a viability (Pentostatin; 0.75 µM) of 1.07 and a viability (Pentostatin; 3.75 µM) of 0.894. It also gave a viability (Pentostatin; 18.76 µM) of 0.736, a viability ([1]; 0.024 µM) of 0.989 and a viability ([1]; 0.12 µM) of 1.07. It also gave a viability ([1]; 0.6 µM) of 0.892, a viability ([1]; 3 µM) of 0.928 and a viability ([1]; 15 µM) of 0.402.
primary FL patient cells (S087) showed a viability (AG-221 (Enasidinib); 0.024 µM) of 0.925, a viability (AG-221 (Enasidinib); 0.12 µM) of 0.86 and a viability (AG-221 (Enasidinib); 0.6 µM) of 0.972. For the same test system, the viability (AG-221 (Enasidinib); 3 µM) was 0.88, the viability (AG-221 (Enasidinib); 15 µM) was 0.87 and the viability (Bortezomib; 0.008 µM) was 0.879. It also gave a viability (Bortezomib; 0.04 µM) of 0.965, a viability (Bortezomib; 0.2 µM) of 0.931 and a viability (Bortezomib; 1 µM) of 0.998. The viability (Bortezomib; 5 µM) was 0.901, the viability (EPZ-5676; 0.0032 µM) was 0.916 and the viability (EPZ-5676; 0.016 µM) was 0.987. The viability (EPZ-5676; 0.08 µM) was 0.92, the viability (EPZ-5676; 0.4 µM) was 0.919 and the viability (EPZ-5676; 2 µM) was 0.975. The viability (Vemurafenib; 0.024 µM) was 1.01, the viability (Vemurafenib; 0.12 µM) was 1.03 and the viability (Vemurafenib; 0.6 µM) was 0.974. For the same test system, the viability (Vemurafenib; 3 µM) was 0.999, the viability (Vemurafenib; 15 µM) was 1.04 and the viability (BI6727; 0.024 µM) was 0.983. It also gave a viability (BI6727; 0.12 µM) of 0.974, a viability (BI6727; 0.6 µM) of 0.917 and a viability (BI6727; 3 µM) of 0.778. For the same test system, the viability (BI6727; 15 µM) was 0.121, the viability (Ribociclib; 0.024 µM) was 0.975 and the viability (Ribociclib; 0.12 µM) was 0.918. The viability (Ribociclib; 0.6 µM) was 0.946, the viability (Ribociclib; 3 µM) was 0.916 and the viability (Ribociclib; 15 µM) was 0.743. It also gave a viability (MLN-120B; 0.024 µM) of 0.95, a viability (MLN-120B; 0.12 µM) of 0.954 and a viability (MLN-120B; 0.6 µM) of 0.96. The viability (MLN-120B; 3 µM) was 0.947, the viability (MLN-120B; 15 µM) was 0.781 and the viability (Nelarabine; 0.024 µM) was 0.975. It also gave a viability (Nelarabine; 0.12 µM) of 0.929, a viability (Nelarabine; 0.6 µM) of 0.891 and a viability (Nelarabine; 3 µM) of 0.818. It also gave a viability (Nelarabine; 15 µM) of 0.745, a viability (Panobinostat; 0.00064 µM) of 0.965 and a viability (Panobinostat; 0.0032 µM) of 0.928. For the same test system, the viability (Panobinostat; 0.016 µM) was 0.748, the viability (Panobinostat; 0.08 µM) was 0.602 and the viability (Panobinostat; 0.4 µM) was 0.555. The viability (BEZ235; 0.024 µM) was 0.905, the viability (BEZ235; 0.12 µM) was 0.986 and the viability (BEZ235; 0.6 µM) was 0.868. It also gave a viability (BEZ235; 3 µM) of 0.846, a viability (BEZ235; 15 µM) of 0.619 and a viability (Iniparib; 0.024 µM) of 1.05. The viability (Iniparib; 0.12 µM) was 1.03, the viability (Iniparib; 0.6 µM) was 1.03 and the viability (Iniparib; 3 µM) was 1.03. For the same test system, the viability (Iniparib; 15 µM) was 0.94, the viability (8-Azaguanin; 0.032 µM) was 0.994 and the viability (8-Azaguanin; 0.16 µM) was 0.974. The viability (8-Azaguanin; 0.8 µM) was 0.889, the viability (8-Azaguanin; 4 µM) was 0.796 and the viability (8-Azaguanin; 20 µM) was 0.713. For the same test system, the viability (Vorinostat; 0.016 µM) was 1.02, the viability (Vorinostat; 0.08 µM) was 1.01 and the viability (Vorinostat; 0.4 µM) was 0.936. The viability (Vorinostat; 2 µM) was 0.846, the viability (Vorinostat; 10 µM) was 0.597 and the viability (Pentostatin; 0.03 µM) was 1.02. The viability (Pentostatin; 0.15 µM) was 0.984, the viability (Pentostatin; 0.75 µM) was 0.967 and the viability (Pentostatin; 3.75 µM) was 0.924. For the same test system, the viability (Pentostatin; 18.76 µM) was 0.902, the viability ([1]; 0.024 µM) was 0.941 and the viability ([1]; 0.12 µM) was 0.913. The viability ([1]; 0.6 µM) was 0.927, the viability ([1]; 3 µM) was 0.888 and the viability ([1]; 15 µM) was 0.487.
